Assay [1] in a line: lipid peroxidation inhibition assay. Particulars: for LPA, lipid peroxidation inhibition activity: (caffeic acid IC50/sample IC50) × 1000, average ± S.D., text prints mg caffeic acid/g. Type of assay: biochemical. An excerpt:
The previously described method was used to investigate the lipid peroxidation inhibition potency. […] The IC50 value was found as the effective sample concentration gave 50% reduction of optical density of initial solution. The value of lipid peroxidation inhibition (I) was found as a ratio of caffeic acid IC50 to sample IC50 [I = (IC50^Caffeic acid/ IC50^Sample) × 1000] and expressed as mg of caffeic acid in 1 g of sample. Values are expressed as mean obtained from five independent experiments.

Assay [2] is described as follows: DPPH radical scavenging assay. Format: biochemical. As to conditions: for DPPH, 2,2-diphenyl-1-picrylhydrazyl radical scavenging activity: (trolox IC50/sample IC50) × 1000, average ± S.D., text prints mg trolox/g. On the procedure: The 2,2-diphenyl-1-picrylhydrazyl (DPPH) radical scavenging activity was performed as described earlier. […] The IC50 value was found as the effective concentration at which DPPH radicals were scavenged by 50%. The value of antioxidant activity (A^DPPH) against DPPH radicals was found as a ratio of trolox IC50 to sample IC50 [A^DPPH = (IC50^Trolox/ IC50^Sample) × 1000] and expressed as mg of trolox in 1 g of sample. Values are expressed as mean obtained from five independent experiments.
(DPPH is a stable violet radical that fades when it is reduced.)

A short description of assay [3]: superoxide anion radical scavenging assay. Type of assay: biochemical. As to conditions: for O2^-, superoxide anion-radical scavenging activity: (quercetin IC50/sample IC50) × 1000, average ± S.D., text prints mg quercetin/g. The text has this: The known assay was used to determine superoxide anion radical scavenging activity. […] The IC50 value was found as the effective concentration at which superoxide anion radicals were scavenged by 50%. The value of antioxidant activity (A^O2•) against superoxide anion radicals was found as a ratio of quercetin IC50 to sample IC50 [A^O2• = (IC50^Quercetin/ IC50^Sample) × 1000] and expressed as mg of quercetin in 1 g of sample. Values are expressed as mean obtained from five independent experiments.

The target of assay [4] is T1, α-amylase from Aspergillus oryzae (Aspergillus oryzae, UniProt P0C1B3).
T1 construct: purchased Sigma-Aldrich 10065
Description: α-amylase inhibiting potential, spectrophotometric assay. Type of assay: biochemical. As to conditions: (acarbose IC50/sample IC50) × 1000, average ± S.D., text prints mg acarbose/g. On the procedure: (§1) The α-amylase inhibiting potential and α-glucosidase inhibiting potential were performed using spectrophotometric assays. The α-amylase from Aspergillus oryzae (3 U/mL) and α-glucosidase from Saccharomyces cerevisae (0.5 U/mL) were used as […]. […] Values are expressed as mean obtained from six independent experiments.

Assay [5] deals with T2, α-glucosidase from Saccharomyces cerevisiae (Saccharomyces cerevisiae, UniProt P53341).
T2 construct: purchased Sigma-Aldrich G5003
Description: α-glucosidase inhibiting potential, spectrophotometric assay. As to conditions: (acarbose IC50/sample IC50) × 1000; average ± S.D.; text prints mg acarbose/g. Format: biochemical. Here is the method:
as §1

The nature of assay [6]: HPLC-DAD assay coupled with pre-chromatographic reaction with DPPH radicals. Type of assay: biochemical. As to conditions: peak in G. asclepiadea herb extract, HPLC-DAD 210 nm. On the procedure:
Scavenging activity against DPPH radicals of gentian herb extracts were medium to high and varied from 147.57 mg trolox/g for G. paradoxa to 580.71 mg trolox/g for G. asclepiadea (Table 3). Extracts of gentian roots were characterized by mostly low activity, with activity values <10 mg trolox/g. […] Figure 9a,b show chromatograms of G. asclepiadea herb extract before and after reaction with DPPH radical. […]. Additional phenolic groups such as 2,3-dihydroxybenzoyl in iridoid structures of gelidoside (rindoside) and trifloroside can increase the radical scavenging potential, but not much (20.82–25.14 mg trolox/g).
Figure 9 HPLC-DAD chromatograms (210 nm) of G. asclepiadea herb extract before (a) and after (b) pre-chromatographic reaction with DPPH radicals and G. gelida roots extract before (c) and after (d) pre-chromatographic reaction with DPPH radicals. Zone of compounds numbered as follows: i—loganic acid; ii—swertiamarin; iii—isoorientin-2″-O-glucoside; iv—gentiopicroside; v—mangiferin; vi—isovitexin-2″-O-glucoside; vii—isoorientin; viii—saponarin; ix—isovitexin; x—luteolin-7-O-glucoside; xi—apigenin-7-O-glucoside; xii—gentiopicroside-6″-O-glucoside; xiii—gelidoside (rindoside); xiv—trifloroside. […] TEXT PRINTED IN THE PICTURE: (b) i: 3% | (b) iii: 72% | (b) iv: 5% | (b) v: 98% | (b) vii: 85% | (b) xi: 11% | (d) iv: 5% | (d) xiii: 8% | (d) xiv: 5% DOUBTS OF THE COPYIST ABOUT THIS PICTURE: The picture prints no measure with the percentages; only the bare % values are copied. / Panel d, 8% (arrow): taken as peak xiii, with 5% taken as xiv; peaks xiii and xiv lie close together, so the assignment is not fully certain. / Panel b, 98% (arrow): taken as peak v, which lies on the shoulder of iv. / The percentages are printed under traces (b) and (d) but compare (a) with (b) and (c) with (d), so the panel choice is uncertain.

For assay [7] the following is noted: cited from earlier work.
On the set-up of assay [8]: method as in doi:10.1016/j.indcrop.2015.04.013. As to conditions: cited from earlier work.
On the set-up of assay [9]: method as in doi:10.1016/j.indcrop.2015.04.013. Particulars: G. cruciata (Serbia) study; cited from earlier work.

The source of these data is PMC6918269, “Caucasian Gentiana Species: Untargeted LC-MS Metabolic Profiling, Antioxidant and Digestive Enzyme Inhibiting Activity of Six Plants” (Metabolites, 2019).

Molecules are shown by their SMILES. Values after ≈ are worked out from the molar mass of the structure shown. Read-outs that look alike come from different tables or passages of the source. Marks after values point to notes of the source that are not given here.

T2 sequence (P53341 whole entry): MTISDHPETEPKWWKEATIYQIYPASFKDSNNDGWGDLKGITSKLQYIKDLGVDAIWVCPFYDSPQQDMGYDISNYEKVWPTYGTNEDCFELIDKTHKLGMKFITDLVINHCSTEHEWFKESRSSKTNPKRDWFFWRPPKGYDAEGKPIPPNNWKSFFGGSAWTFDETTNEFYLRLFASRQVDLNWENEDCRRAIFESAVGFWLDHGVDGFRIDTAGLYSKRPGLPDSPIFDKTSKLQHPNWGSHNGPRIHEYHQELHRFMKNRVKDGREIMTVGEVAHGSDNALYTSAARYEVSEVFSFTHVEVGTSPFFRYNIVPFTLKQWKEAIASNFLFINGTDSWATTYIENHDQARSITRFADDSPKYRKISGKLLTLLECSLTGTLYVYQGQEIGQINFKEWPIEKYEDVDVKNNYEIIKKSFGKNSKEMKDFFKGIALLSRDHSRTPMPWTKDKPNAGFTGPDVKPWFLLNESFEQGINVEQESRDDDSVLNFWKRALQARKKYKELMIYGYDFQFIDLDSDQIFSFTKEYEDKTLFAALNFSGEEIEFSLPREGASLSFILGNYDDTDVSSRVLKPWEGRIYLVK

On to `O=C(O)/C=C/c1ccc(O)c(O)c1` [Caffeic acid, caffeic acid, reference compound], for which the “IC50, lipid peroxidation inhibition” value in assay [1] (positive control) came out at 58.96 ± 1.14 µg/mL (≈ 327 µM).

Take `C=C[C@@H]1C2=CCOC(=O)C2=CO[C@H]1O[C@@H]1O[C@H](CO)[C@@H](O)[C@H](O)[C@H]1O` [Gentiopicroside]: the “DPPH, 2,2-diphenyl-1-picrylhydrazyl radical scavenging activity” value in [2] is < 10.00 mg of trolox per g of dry extract weight; in [2] (listed as gentiopicroside), < 10 mg of trolox per g of dry extr. The “O2^-, superoxide anion-radical scavenging activity” value in assay [3] is < 10.00 mg of quercetin per g of dry extract weight. Moreover, the “LPA, lipid peroxidation inhibition activity” value in assay [1] is < 10.00 mg of caffeic acid per g of dry extract weight. Further, the “αAIP, α-amylase inhibitory potential” value in assay [4] is listed as < 10.00 mg of acarbose per g of dry extract weight. The “αGIP, α-glycosidase inhibitory potential” value in [5] is on record as < 10.00 mg of acarbose per g of dry extract weight. For the same compound, the “percentage of peak area reduction after pre-chromatographic reaction with DPPH radicals” value (“percentage of peak area reduction” below) in assay [6] is 3–5%.

Turning to `O=c1cc(-c2ccc(O)c(O)c2)oc2cc(O)c([C@@H]3O[C@H](CO)[C@@H](O)[C@H](O)[C@H]3O)c(O)c12` [Isoorientin, Luteolin-6-C-Glc (isoorientin)], the “αAIP, α-amylase inhibitory potential” value in assay [4] is 1242.03 ± 44.71 ^xxviii mg of acarbose per g of dry extract weight. In [5], the “αGIP, α-glycosidase inhibitory potential” value is 811.10 ± 32.44 ^xxxvi mg of acarbose per g of dry extract weight. Also, in assay [6], the “percentage of peak area reduction” value was 72–98%.

As to `O=c1cc(-c2ccc(O)cc2)oc2cc(O)c([C@@H]3O[C@H](CO)[C@@H](O)[C@H](O)[C@H]3O)c(O)c12` [Isovitexin], in assay [2], the “DPPH, 2,2-diphenyl-1-picrylhydrazyl radical scavenging activity” value is given as 425.11 ± 8.50 ^v mg of trolox per g of dry extract weight. In addition, the “O2^-, superoxide anion-radical scavenging activity” value in assay [3] is listed as 211.63 ± 4.20 ^xii mg of quercetin per g of dry extract weight. Further, the “LPA, lipid peroxidation inhibition activity” value in assay [1] is on record as 96.54 ± 3.73 ^xvii mg of caffeic acid per g of dry extract weight. For the same compound, the results for the “αAIP, α-amylase inhibitory potential” value in [4] and in assay [4] (listed as isovitexin) were 108.35 ± 3.79 ^xxii mg of acarbose per g of dry extract weight and “medium”, respectively.

As to `C[C@@H]1[C@H]2[C@H](O[C@@H]3O[C@H](CO)[C@@H](O)[C@H](O)[C@H]3O)OC=C(C(=O)O)[C@H]2C[C@@H]1O` [Loganic Acid, Loganic acid], the “DPPH, 2,2-diphenyl-1-picrylhydrazyl radical scavenging activity” value in assay [2] is < 10.00 mg of trolox per g of dry extract weight; in assay [2] (listed as loganic acid), < 10 mg of trolox per g of dry extr. Moreover, the “O2^-, superoxide anion-radical scavenging activity” value in assay [3] is listed as < 10.00 mg of quercetin per g of dry extract weight. Also, the “LPA, lipid peroxidation inhibition activity” value in assay [1] is recorded as < 10.00 mg of caffeic acid per g of dry extract weight. Also, in assay [4], the “αAIP, α-amylase inhibitory potential” value is < 10.00 mg of acarbose per g of dry extract weight. Moreover, the “αGIP, α-glycosidase inhibitory potential” value in [5] is reported as < 10.00 mg of acarbose per g of dry extract weight. The “percentage of peak area reduction” value in assay [6] is given as 3–5%.

Regarding `O=c1c2cc(O)c(O)cc2oc2cc(O)c([C@@H]3O[C@H](CO)[C@@H](O)[C@H](O)[C@H]3O)c(O)c12` [Mangiferin], the “DPPH, 2,2-diphenyl-1-picrylhydrazyl radical scavenging activity” value is reported as 3824.20 ± 76.48 ^viii mg of trolox per g of dry extract weight in [2] and 3824.20 mg of trolox per g of dry extr in [2] (listed as mangiferin). Also, the “O2^-, superoxide anion-radical scavenging activity” value is listed as 927.07 ± 18.54 ^xiv mg of quercetin per g of dry extract weight in [3] and 927.07 mg of quercetin per g of dry e in assay [3] (listed as mangiferin). The “LPA, lipid peroxidation inhibition activity” value in assay [1] was 522.14 ± 20.85 ^xx mg of caffeic acid per g of dry extract weight; in assay [1] (listed as mangiferin), 522.14 mg of caffeic acid per g of dr. The “αAIP, α-amylase inhibitory potential” value in assay [4] is on record as 296.14 ± 10.36 ^xxiv mg of acarbose per g of dry extract weight. Further, in [5], the “αGIP, α-glycosidase inhibitory potential” value is 1562.84 ± 62.48 ^xxxvii mg of acarbose per g of dry extract weight. Also, the “percentage of peak area reduction” value in assay [6] is listed as 72–98%.

For `O=c1c(O)c(-c2ccc(O)c(O)c2)oc2cc(O)cc(O)c12` [Quercetin, quercetin, reference compound], in assay [3] (positive control), the “IC50, superoxide anion radicals scavenged by 50%” value is given as 21.74 ± 0.42 µg/mL (≈ 71.9 µM).

With `O=C1O[C@H]([C@@H](O)CO)C(O)=C1O` [ascorbic acid], the “IC50 in the DPPH assay” value in [7] (Serbian species G. asclepiadea study) is 5.23 µg/mL (≈ 29.7 µM); in [7] (Serbian species G. cruciata study), 6.05 µg/mL (≈ 34.4 µM).

For `Cc1cc(C(C)(C)C)c(O)c(C(C)(C)C)c1` [butylated hydroxytoluene], the “IC50, inhibitory activity toward lipid peroxidation” value in assay [8] was 1.00 µg/mL (≈ 4.54 µM).

With `O=C(O)c1cc(O)c(O)c(O)c1` [gallic acid], in assay [9], the “superoxide scavenging potential (IC50)” value is 360 µg/mL.

For `O=c1cc(-c2ccc(O)c(O)c2)oc2cc(O)c([C@@H]3O[C@H](CO)[C@@H](O)[C@H](O)[C@H]3O[C@@H]3O[C@H](CO)[C@@H](O)[C@H](O)[C@H]3O)c(O)c12` [isoorientin-2″-O-glucoside, Isoorientin-2″-O-Glc], the “percentage of peak area reduction” value in [6] is 72–98%.

Regarding `Cc1c(C)c2c(c(C)c1O)CCC(C)(C(=O)O)O2` (stereo not drawn) [trolox, reference compound], in assay [2] (positive control), the “IC50, DPPH radicals scavenged by 50%” value came out at 11.62 ± 0.23 µg/mL (≈ 46.4 µM).
